# Data from paper PMC12598616, “Design and optimization of caspase-1-responsive fluorescent probes for pyroptosis imaging and anti-pyroptosis drug screening” (Chemical Science, 2025).
# What was measured:
# [1] = target: T1, caspase-1 (Homo sapiens, UniProt P29466); test: Reaction time of probes for caspase-1; format: biochemical; details: probe 5 μM, Cas-1 2 U/mL, assay buffer, 37 °C
# T1 sequence (P29466 120-297 limits assumed): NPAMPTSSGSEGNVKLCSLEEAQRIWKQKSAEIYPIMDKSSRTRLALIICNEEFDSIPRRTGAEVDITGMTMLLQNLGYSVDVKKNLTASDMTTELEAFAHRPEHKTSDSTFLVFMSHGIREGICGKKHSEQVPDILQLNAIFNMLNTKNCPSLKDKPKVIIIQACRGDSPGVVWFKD
# T1 sequence (P29466 317-404 limits assumed): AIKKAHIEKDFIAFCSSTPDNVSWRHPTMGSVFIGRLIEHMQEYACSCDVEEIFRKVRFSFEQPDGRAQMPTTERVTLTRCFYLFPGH
# Description: The spectral and chemical properties of all probes were then evaluated. Upon interaction with Cas-1, the specific peptide of the probes is cleaved, leading to the disruption of the FRET process in the system and the recovery of donor fluorescence (Fig. 2a). Prior to fluorescence detection, the UV-vis absorption spectra of the probes were acquired. […] Subsequently, the sensitivity of the probes towards Cas-1 was measured in HEPES buffer (50 mM HEPES, 50 mM NaCl, 0.1% chaps, 5% glycerol, 10 mM DTT, 10 mM EDTA). […] The response differences among the probes were more intuitively observed by analyzing the standard curves of fluorescence intensity at 585 nm against the concentration of Cas-1 (Fig. 2b). […] The reaction kinetics of the probes were also measured by monitoring the fluorescence intensity of FPy1, YPy1 and WPy1 (0.5–4 μM) following incubation with Cas-1 (2 U mL^−1) (Fig. S3a–f). […] The reaction time of the probes was also investigated by monitoring the fluorescence spectra of the probes (5 μM) incubated with Cas-1 (2 U mL^−1) at various time intervals (Fig. S4a–c). […] Finally, the selectivity of the probes was evaluated. […]
# To investigate the sensitivity of the probes for caspase-1, varying concentration of caspase-1 (0, 0.2, 0.4, 0.6, 0.8, 1.0, 1.25, 1.5, 1.75, 2, 2.5, 3 U/mL) were incubated with FPy1 (5 μM), YPy1 (5 μM) and WPy1 (5 μM) respectively in caspase-1 assay buffer (50 mM HEPES, 50 mM NaCl, 0.1 % chaps, 5 % glycerol, 10 mM DTT, 10 mM EDTA) at 37 °C for 2 hours. Fluorescence spectra were recorded using Hitachi F-2700 spectrophotometer with an excitation at 510 nm (Photomultiplier voltage 700 V; Slit widths ex: 10 nm and em =5.0 nm). The fluorescence intensity of FPy1, YPy1 and WPy1 at 585 nm were plotted against the concentration of caspase-1, and a linear regression fitted from the corresponding concentration of caspase-1, and linear regression was applied to determine the slope k. The limit of detection (LoD) was calculated from 3σ/k, in which σ represents the standard deviation of 15 blank measurements. […]
# [2] = target: T1, caspase-1; test: Sensitivity of probes for caspase-1 (fluorescence at 585 nm); format: biochemical; details: for linear fitting range of Cas-1 concentration: fluorescence intensity at 585 nm vs Cas-1 concentration; for enhancement of fluorescence intensity at 585 nm: Cas-1 0–3 U/mL, assay buffer 50 mM HEPES, 50 mM NaCl, 0.1% chaps, 5% glycerol, 10 mM DTT, 10 mM EDTA, λex 510 nm
# Description: The spectral and chemical properties of all probes were then evaluated. Upon interaction with Cas-1, the specific peptide of the probes is cleaved, leading to the disruption of the FRET process in the system and the recovery of donor fluorescence (Fig. 2a). Prior to fluorescence detection, the UV-vis absorption spectra of the probes were acquired. […] Subsequently, the sensitivity of the probes towards Cas-1 was measured in HEPES buffer (50 mM HEPES, 50 mM NaCl, 0.1% chaps, 5% glycerol, 10 mM DTT, 10 mM EDTA). […] The response differences among the probes were more intuitively observed by analyzing the standard curves of fluorescence intensity at 585 nm against the concentration of Cas-1 (Fig. 2b). […] The reaction kinetics of the probes were also measured by monitoring the fluorescence intensity of FPy1, YPy1 and WPy1 (0.5–4 μM) following incubation with Cas-1 (2 U mL^−1) (Fig. S3a–f). […] The reaction time of the probes was also investigated by monitoring the fluorescence spectra of the probes (5 μM) incubated with Cas-1 (2 U mL^−1) at various time intervals (Fig. S4a–c). […] Finally, the selectivity of the probes was evaluated. A series of potential biologically relevant interferents were selected, and the results illustrated that these interferents had no effect on the probes (Fig. S5a–c). Further selectivity validation was performed through incubating with caspase-3 (1 μg mL^−1), caspase-4 (2 U mL^−1), caspase-8 (1 μg mL^−1) from the caspase protease family. […] Therefore, FPy1 appeared to be the prime candidate for Cas-1 imaging applications. […]
# Cell culture plates were sourced from Wuxi NEST Biotechnology. Recombinant human caspase-1, caspase-3, caspase-4, and caspase-8 were obtained from Abcam and MCE (Shanghai, China). Anti-cleaved caspase-1 antibody, anti-GAPDH antibody, and goat anti-Rabbit/anti-mouse lgG/HRP were purchased from CST (USA) and Beyotime […]
# (Shanghai, China). […]
# Medical College (ethical approval number ZJCLA-IACUC-20011003).
# (also on this page, place not known: Wang,*f, Wang*abg Supplementary Information (SI) for Chemical Science. This journal is © The Royal Society of Chemistry 2025)
# (1 picture or pasted object on this page, not shown here) […]
# mixture was stirred for 3 h. DCM was removed under vacuum, and the residue was purified by silica gel column chromatography (DCM/MeOH, 180/1) to afford WPy1 as a dark purple solid (21 mg, 6 % yield). HRMS (ESI+): calcd […]
# Analysis of probe purity by LC-MSD
# Prepare dilute solutions of FPy1, YPy1 and WPy1 using chromatographic-grade acetonitrile and transfer them to sample vials. Begin with an initial mobile phase consisting of 20% acetonitrile (0.05 % formic acid) and 80% H2O (0.05 % formic acid). Over the course of 30 minutes, implement a gradient change to a mobile phase of 90% acetonitrile (0.05 % formic acid) and 10% H2O (0.05 % FA). Under the elution conditions, LC-MSD was performed on the above probe solutions and blank solvent acetonitrile.
# Sensitivity of probes for caspase-1
# To investigate the sensitivity of the probes for caspase-1, varying concentration of caspase-1 (0, 0.2, 0.4, 0.6, 0.8, 1.0, 1.25, 1.5, 1.75, 2, 2.5, 3 U/mL) were incubated with FPy1 (5 μM), YPy1 (5 μM) and WPy1 (5 μM) respectively in caspase-1 assay buffer (50 mM HEPES, 50 mM NaCl, 0.1 % chaps, 5 % glycerol, 10 mM DTT, 10 mM EDTA) at 37 °C for 2 hours. Fluorescence spectra were recorded using Hitachi F-2700 spectrophotometer with an excitation at 510 nm (Photomultiplier voltage 700 V; Slit widths ex: 10 nm and em =5.0 nm). The fluorescence intensity of FPy1, YPy1 and WPy1 at 585 nm were plotted against the concentration of caspase-1, and a linear regression fitted from the corresponding concentration of caspase-1, and linear regression was applied to determine the slope k. The limit of detection (LoD) was calculated from 3σ/k, in which σ represents the standard deviation of 15 blank measurements.
# Various concentrations of FPy1, YPy1 and WPy1 (0.5, 1, 2, 4 μM) in 100 μL enzyme assay buffer (50 mM HEPES, 50 […]
Substance,time to maximum fluorescence intensity at 585 nm (reaction time) [1] [min],"linear fitting range of Cas-1 concentration ([2]; probe 5 μM, 37 °C, 2 h)","enhancement of fluorescence intensity at 585 nm ([2]; probe 5 μM, 37 °C, 2 h)","limit of detection ([2]; Cas-1, 3σ/k, σ from 15 blank measurements, probe 5 μM, 37 °C, 2 h, estimated) [U L^−1]","fluorescence intensity at 585 nm at the same Cas-1 concentration ([2]; before maximum, compared to YPy1, probe 5 μM)","catalytic efficiency of Cas-1 for the probe ([2]; compared with YPy1, inferred from intensity at same Cas-1 concentration)"
"–YVADG– [YPy1, caspase-1-responsive FRET probe with recognition peptide –YVADG–; RhoB donor, hNR quencher]",60,0–2 U mL^−1,~19.2 fold,,,
"–FLTDG– [FPy1, RhoB donor, hNR quencher]",≤ 40,0–1 U mL^−1,approximately 20.2 fold,3.7,stronger fluorescence intensity at 585 nm compared to YPy1,higher catalytic efficiency for FPy1 than YPy1
